# In ChEMBL document CHEMBL5634130, “Exploring the structural-activity relationship of hexahydropyrazino[1,2-d]pyrido[3,2-b][1,4]oxazine derivatives as potent and orally-bioavailable PARP7 inhibitors” (Eur J Med Chem, 2023):
# pIC50: −log10 of the molar value.
# Key:
# [1] = Thermodynamic solubility of compound at pH 6.5; assay type: physicochemical; conditions: buffer, read-out: Therm_solubility
# Cytochrome P450 2D6 = Cytochrome P450 2D6 (Homo sapiens, UniProt P10635); test: Inhibition of CYP2D6 in human liver microsomes using dextromethorphan as substrate preincubated for 10 mins followed by substrate addition measured for 30 mins by LC-MS analysis; assay type: ADME, Microsome
# [2] = Volume of distribution at steady state in fasted Beagle dog at 2 mg/kg, iv measured for 24 hrs by LC-MS analysis; assay type: ADME, organism-based, Canis lupus familiaris; conditions: in vivo, read-out: Vdss
# [3] = Clearance in fasted ICR mouse at 2 mg/kg, iv measured for 24 hrs by LC-MS analysis; assay type: ADME, organism-based; conditions: in vivo
# [4] = Metabolic stability in mouse liver microsomes assessed as intrinsic clearance preincubated for 5 mins followed by NADPH addition measured for 1 hr by LC-MS analysis; assay type: ADME, Microsome; conditions: time 65 min, read-out: CLH
# [5] = Kinetic solubility of compound at pH 7.4; assay type: physicochemical; conditions: buffer, read-out: Kinetic_solubility
# [6] = Volume of distribution at steady state in fasted ICR mouse at 2 mg/kg, iv measured for 24 hrs by LC-MS analysis; assay type: ADME, organism-based; conditions: in vivo, read-out: Vdss
# [7] = Plasma protein binding in human at 2 uM incubated for 1 hr by LC/MS analysis; assay type: ADME, cell-free; conditions: read-out: PPB (converted)
# Cytochrome P450 2C9 = Cytochrome P450 2C9 (Homo sapiens, UniProt P11712); test: Inhibition of CYP2C9 in human liver microsomes using diclofenac as substrate preincubated for 10 mins followed by substrate addition measured for 30 mins by LC-MS analysis; assay type: ADME, Microsome
# [8] = Kinetic solubility of compound at pH 6.5; assay type: physicochemical; conditions: buffer, read-out: Kinetic_solubility
# [9] = Thermodynamic solubility of compound at pH 2; assay type: physicochemical; conditions: buffer, read-out: Therm_solubility
# Cytochrome P450 3A4 = Cytochrome P450 3A4 (Homo sapiens, UniProt P08684); test: Inhibition of CYP3A4 in human liver microsomes using midazolam as substrate preincubated for 10 mins followed by substrate addition measured for 30 mins by LC-MS analysis; assay type: ADME, Microsome
# [10] = Tmax in fasted ICR mouse at 10 mg/kg, po measured for 24 hrs by LC-MS analysis; assay type: ADME, organism-based; conditions: in vivo
# [11] = Metabolic stability in dog liver microsomes assessed as intrinsic clearance preincubated for 5 mins followed by NADPH addition measured for 1 hr by LC-MS analysis; assay type: ADME, Canis lupus familiaris, Microsome; conditions: time 65 min, read-out: CLH
# [12] = Cmax in fasted Beagle dog at 10 mg/kg, po measured for 24 hrs by LC-MS analysis; assay type: ADME, organism-based, Canis lupus familiaris; conditions: in vivo
# NCI-H1373 = test: Antitumor activity against human NCI-H1373 cells xenografted in […] SCID mouse model assessed as tumor growth inhibition at 30 mg/kg, po administered everyday measured after 21 days relative to control; assay type: functional; conditions: NCI-H1373, 504 h, time 21 day, read-out: TGI
# [13] = Plasma protein binding in dog at 2 uM incubated for 1 hr by LC/MS analysis; assay type: ADME, cell-free, Canis lupus familiaris; conditions: read-out: PPB (converted)
# [14] = Plasma protein binding in rat at 2 uM incubated for 1 hr by LC/MS analysis; assay type: ADME, cell-free; conditions: read-out: PPB (converted)
# [15] = Plasma protein binding in monkey at 2 uM incubated for 1 hr by LC/MS analysis; assay type: ADME, cell-free, Macaca mulatta; conditions: rhesus monkey, read-out: PPB (converted)
# [16] = AUC in fasted ICR mouse at 2 mg/kg, iv measured for 24 hrs by LC-MS analysis; assay type: ADME, organism-based; conditions: in vivo
# [17] = Oral bioavailability in fasted Beagle dog at 10 mg/kg measured for 24 hrs by LC-MS analysis; assay type: ADME, organism-based, Canis lupus familiaris; conditions: in vivo
# [18] = Metabolic stability in human liver microsomes assessed as intrinsic clearance preincubated for 5 mins followed by NADPH addition measured for 1 hr by LC-MS analysis; assay type: ADME, Microsome; conditions: time 65 min, read-out: CLH
# [19] = Metabolic stability in monkey liver microsomes assessed as intrinsic clearance preincubated for 5 mins followed by NADPH addition measured for 1 hr by LC-MS analysis; assay type: ADME, Macaca mulatta, Microsome; conditions: rhesus monkey, time 65 min, read-out: CLH
# [20] = Apparent permeability across basolateral to apical side in MDCKII-MDR1 cells incubated for 2 hrs by LC-MS analysis; assay type: ADME, cell-based, Canis lupus familiaris; conditions: dog, MDCK-MDR1
# [21] = Kinetic solubility of compound at pH 2; assay type: physicochemical; conditions: buffer, read-out: Kinetic_solubility
# [22] = AUC in fasted Beagle dog at 2 mg/kg, iv measured for 24 hrs by LC-MS analysis; assay type: ADME, organism-based, Canis lupus familiaris; conditions: in vivo, iv, 2 mg/kg, 24 h
# [23] = Toxicity in […] SCID mouse model xenografted with human NCI-H1373 cells assessed as animal death at 30 mg/kg, po measured for 21 days; assay type: organism-based; conditions: in vivo, 504 h, time 21 day
# [24] = AUC in fasted Beagle dog at 10 mg/kg, po measured for 24 hrs by LC-MS analysis; assay type: ADME, organism-based, Canis lupus familiaris; conditions: in vivo
# [25] = Half life in fasted Beagle dog at 10 mg/kg, po measured for 24 hrs by LC-MS analysis; assay type: ADME, organism-based, Canis lupus familiaris; conditions: in vivo
# [26] = Tmax in fasted Beagle dog at 10 mg/kg, po measured for 24 hrs by LC-MS analysis; assay type: ADME, organism-based, Canis lupus familiaris; conditions: in vivo
# [27] = Plasma protein binding in mouse at 2 uM incubated for 1 hr by LC/MS analysis; assay type: ADME, cell-free; conditions: read-out: PPB (converted)
# [28] = Half life in fasted Beagle dog at 2 mg/kg, iv measured for 24 hrs by LC-MS analysis; assay type: ADME, organism-based, Canis lupus familiaris; conditions: in vivo
# [29] = Metabolic stability in rat liver microsomes assessed as intrinsic clearance preincubated for 5 mins followed by NADPH addition measured for 1 hr by LC-MS analysis; assay type: ADME, Microsome; conditions: time 65 min, read-out: CLH
# [30] = Cmax in fasted ICR mouse at 10 mg/kg, po measured for 24 hrs by LC-MS analysis; assay type: ADME, organism-based; conditions: in vivo
# Cytochrome P450 2C19 = Cytochrome P450 2C19 (Homo sapiens, UniProt P33261); test: Inhibition of CYP2C19 in human liver microsomes using mephenytoin as substrate preincubated for 10 mins followed by substrate addition measured for 30 mins by LC-MS analysis; assay type: ADME, Microsome
# [31] = Toxicity in […] SCID mouse model xenografted with human NCI-H1373 cells assessed as body weight loss at 30 mg/kg, po measured for 21 days; assay type: organism-based; conditions: in vivo, 504 h, time 21 day
# [32] = Half life in fasted ICR mouse at 2 mg/kg, iv measured for 24 hrs by LC-MS analysis; assay type: ADME, organism-based; conditions: in vivo
# [33] = AUC in fasted ICR mouse at 10 mg/kg, po measured for 24 hrs by LC-MS analysis; assay type: ADME, organism-based; conditions: in vivo
# [34] = Thermodynamic solubility of compound at pH 7.4; assay type: physicochemical; conditions: buffer, read-out: Therm_solubility
# [35] = Oral bioavailability in fasted ICR mouse at 10 mg/kg measured for 24 hrs by LC-MS analysis; assay type: ADME, organism-based; conditions: in vivo
# [36] = Apparent permeability across apical to basolateral side in MDCKII-MDR1 cells incubated for 2 hrs by LC-MS analysis; assay type: ADME, cell-based, Canis lupus familiaris; conditions: dog, MDCK-MDR1
# Cytochrome P450 1A2 = biological target: T1, Cytochrome P450 1A2 (Homo sapiens, UniProt P05177); test: Inhibition of CYP1A2 in human liver microsomes using phenacetin as substrate preincubated for 10 mins followed by substrate addition measured for 30 mins by LC-MS analysis; assay type: ADME, Microsome
# T1 sequence (P05177 whole entry): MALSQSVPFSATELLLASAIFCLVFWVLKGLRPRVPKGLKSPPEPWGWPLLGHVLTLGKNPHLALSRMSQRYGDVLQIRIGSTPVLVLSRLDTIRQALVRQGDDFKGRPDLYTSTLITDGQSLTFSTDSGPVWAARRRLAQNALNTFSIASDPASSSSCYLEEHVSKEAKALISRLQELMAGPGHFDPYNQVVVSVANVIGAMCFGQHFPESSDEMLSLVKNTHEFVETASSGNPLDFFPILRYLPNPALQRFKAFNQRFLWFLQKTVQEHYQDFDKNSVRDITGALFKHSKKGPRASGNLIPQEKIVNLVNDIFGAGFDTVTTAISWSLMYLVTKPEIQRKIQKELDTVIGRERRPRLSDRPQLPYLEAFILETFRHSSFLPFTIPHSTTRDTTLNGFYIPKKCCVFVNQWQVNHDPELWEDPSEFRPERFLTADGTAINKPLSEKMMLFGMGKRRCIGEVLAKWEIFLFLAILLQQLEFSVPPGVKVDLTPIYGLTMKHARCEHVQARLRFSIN
# [37] = Half life in fasted ICR mouse at 10 mg/kg, po measured for 24 hrs by LC-MS analysis; assay type: ADME, organism-based; conditions: in vivo
# [38] = Passive permeability in MDCKII-MDR1 cells incubated for 2 hrs by LC-MS analysis; assay type: ADME, cell-based, Canis lupus familiaris; conditions: dog, MDCK-MDR1, read-out: permeability
# Chain of Cytochrome P450 3A4 (P08684 whole entry): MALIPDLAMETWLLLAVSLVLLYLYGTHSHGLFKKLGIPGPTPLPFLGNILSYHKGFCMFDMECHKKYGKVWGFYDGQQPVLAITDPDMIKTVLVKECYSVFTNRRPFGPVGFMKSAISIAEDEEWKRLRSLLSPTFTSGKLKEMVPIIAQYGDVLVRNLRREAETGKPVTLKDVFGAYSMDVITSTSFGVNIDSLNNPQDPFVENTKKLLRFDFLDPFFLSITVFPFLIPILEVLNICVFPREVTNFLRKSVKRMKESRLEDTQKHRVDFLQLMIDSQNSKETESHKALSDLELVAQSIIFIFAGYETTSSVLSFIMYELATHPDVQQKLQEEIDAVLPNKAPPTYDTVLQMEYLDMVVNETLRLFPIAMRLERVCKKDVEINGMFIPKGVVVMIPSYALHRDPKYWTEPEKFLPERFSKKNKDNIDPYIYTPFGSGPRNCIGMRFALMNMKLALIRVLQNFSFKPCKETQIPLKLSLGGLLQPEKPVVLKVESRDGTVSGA
# Chain of Cytochrome P450 2C9 (P11712 whole entry): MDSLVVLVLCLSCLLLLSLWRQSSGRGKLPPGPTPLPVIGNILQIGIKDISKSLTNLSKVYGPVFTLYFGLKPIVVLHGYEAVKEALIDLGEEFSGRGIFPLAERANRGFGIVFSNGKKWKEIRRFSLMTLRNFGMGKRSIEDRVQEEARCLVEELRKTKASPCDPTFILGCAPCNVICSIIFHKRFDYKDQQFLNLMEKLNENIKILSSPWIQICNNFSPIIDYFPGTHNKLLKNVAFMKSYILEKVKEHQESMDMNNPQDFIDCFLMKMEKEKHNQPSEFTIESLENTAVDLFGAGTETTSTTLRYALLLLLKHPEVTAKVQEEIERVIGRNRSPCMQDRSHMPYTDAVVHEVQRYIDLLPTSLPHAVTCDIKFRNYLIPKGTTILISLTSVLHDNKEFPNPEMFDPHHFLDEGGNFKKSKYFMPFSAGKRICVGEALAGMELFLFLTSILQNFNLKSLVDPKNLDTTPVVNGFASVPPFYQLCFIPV
# Chain of Cytochrome P450 2D6 (P10635 whole entry): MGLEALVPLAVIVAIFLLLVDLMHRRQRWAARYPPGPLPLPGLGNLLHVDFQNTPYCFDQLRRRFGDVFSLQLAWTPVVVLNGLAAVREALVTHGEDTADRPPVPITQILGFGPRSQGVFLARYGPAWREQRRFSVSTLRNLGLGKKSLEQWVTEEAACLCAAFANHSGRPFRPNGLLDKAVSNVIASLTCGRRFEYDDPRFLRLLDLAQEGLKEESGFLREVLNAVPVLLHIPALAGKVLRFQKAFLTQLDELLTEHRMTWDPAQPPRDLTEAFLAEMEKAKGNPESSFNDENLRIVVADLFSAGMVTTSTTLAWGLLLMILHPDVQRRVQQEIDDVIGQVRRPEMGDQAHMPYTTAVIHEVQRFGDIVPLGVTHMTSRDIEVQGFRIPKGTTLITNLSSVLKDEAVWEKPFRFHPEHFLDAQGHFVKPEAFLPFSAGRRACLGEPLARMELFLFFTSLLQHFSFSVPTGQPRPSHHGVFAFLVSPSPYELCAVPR
# Chain of Cytochrome P450 2C19 (P33261 whole entry): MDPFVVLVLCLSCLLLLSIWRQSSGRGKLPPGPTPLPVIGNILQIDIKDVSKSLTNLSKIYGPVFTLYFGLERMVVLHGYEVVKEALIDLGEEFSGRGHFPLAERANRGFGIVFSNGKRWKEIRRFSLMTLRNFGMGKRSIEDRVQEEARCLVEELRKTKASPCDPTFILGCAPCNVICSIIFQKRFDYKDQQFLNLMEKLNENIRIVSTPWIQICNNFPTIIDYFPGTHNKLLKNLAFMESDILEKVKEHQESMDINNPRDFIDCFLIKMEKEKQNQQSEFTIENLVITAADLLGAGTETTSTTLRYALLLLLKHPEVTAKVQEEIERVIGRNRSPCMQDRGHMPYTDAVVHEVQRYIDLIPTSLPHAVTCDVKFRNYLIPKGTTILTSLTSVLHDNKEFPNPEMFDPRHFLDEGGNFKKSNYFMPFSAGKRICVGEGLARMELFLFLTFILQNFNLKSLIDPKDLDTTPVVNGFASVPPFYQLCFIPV
compound,measurement,setting,value
C[C@@H](COCCC(=O)N1CCN(c2ncc(C(F)(F)F)cn2)CC1)Nc1cn[nH]c(=O)c1C(F)(F)F [ATAMPARIB],solubility thermodynamic,[1],54.6 µg/mL
same,pIC50,Cytochrome P450 2D6,< 4.52
same,Vd,[2],1.7 L/kg
same,clearance,[3],72.6 mL/min/kg
same,CLint scaled,[4],345 mL/min/kg
same,solubility kinetic,[5],158 µM
same,Vd,[6],0.714 L/kg
same,"fraction unbound at 1 h, 2 µM",[7],0.194
same,pIC50,Cytochrome P450 2C9,5.50
same,solubility kinetic,[8],151 µM
same,solubility thermodynamic,[9],68.9 µg/mL
same,pIC50,Cytochrome P450 3A4,< 4.52
same,Tmax,[10],0.25 h
same,CLint scaled,[11],17.1 mL/min/kg
same,Cmax,[12],1800 ng/mL
same,inhibition in vivo at 30 mg/kg,NCI-H1373,62.7%
same,"fraction unbound at 1 h, 2 µM",[13],0.131
same,"fraction unbound at 1 h, 2 µM",[14],0.233
same,"fraction unbound at 1 h, 2 µM",[15],0.347
same,AUC at 24 h,[16],470 ng·h/mL
same,bioavailability,[17],23.4%
same,CLint scaled,[18],23.2 mL/min/kg
same,CLint scaled,[19],94.8 mL/min/kg
same,Papp B→A at 2 h,[20],3.78 ×10⁻⁶ cm/s
same,solubility kinetic,[21],158 µM
same,AUC,[22],4694 ng·h/mL
same,Activity,[23],Non-Toxic
same,AUC,[24],5508 ng·h/mL
same,t1/2,[25],2.5 h
same,Tmax,[26],1.33 h
same,"fraction unbound at 1 h, 2 µM",[27],0.123
same,half-life,[28],1 h
same,CLint scaled,[29],110 mL/min/kg
same,Cmax,[30],995 ng/mL
same,pIC50,Cytochrome P450 2C19,< 4.52
same,Activity,[31],Non-Toxic
same,half-life,[32],0.2 h
same,AUC,[33],617 ng·h/mL
same,solubility thermodynamic,[34],52.8 µg/mL
same,bioavailability,[35],26.2%
same,Papp A→B at 2 h,[36],0.28 ×10⁻⁶ cm/s
same,pIC50,Cytochrome P450 1A2,< 4.52
same,t1/2,[37],2.7 h
same,Papp at 2 h,[38],1.03 ×10⁻⁶ cm/s
